Measurements from PubChem BioAssay (NCI).
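Grown in 96-well plates, cells were treated for 48 hours with each compound at five concentrations. Insufficient inhibition: endpoint recorded as highest concentration tested. Definition used: TGI = concentration required for complete inhibition of growth.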

Legend:
Assay in all cases: DTP human tumour cell line panel, 48 h
MALME-3M melanoma = system: MALME-3M melanoma
OVCAR-3 ovarian = system: OVCAR-3 ovarian
SN12C renal = system: SN12C renal
SNB-75 CNS = system: SNB-75 CNS
DU-145 prostate = system: DU-145 prostate
NCI-H23 lung = system: NCI-H23 lung
SF-539 CNS = system: SF-539 CNS
A498 renal = system: A498 renal
CAKI-1 renal = system: CAKI-1 renal
UO-31 renal = system: UO-31 renal

SMILES | TGI (MALME-3M melanoma) [µM] | TGI (OVCAR-3 ovarian) [µM] | TGI (SN12C renal) [µM] | TGI (SNB-75 CNS) [µM] | TGI (DU-145 prostate) [µM] | TGI (NCI-H23 lung) [µM] | TGI (SF-539 CNS) [µM] | TGI (A498 renal) [µM] | TGI (CAKI-1 renal) [µM] | TGI (UO-31 renal) [µM]
CCCCN1/C(=N/Nc2n[nH]c(=O)c3ccccc23)SCC1c1ccc(Cl)cc1 (stereo not given) | 62 | 37.6 | > 100 | 64 | > 100 | 14.7 | 33.1 | 66.2 | 77.4 | 93.3
CCCCCCCCCCCCCCCC(=O)OCC(COP(=O)(O)OCCNC(=O)CCSSc1ccccn1)OC(=O)CCCCCCCCCCCCCCC (stereo not given) | > 100 | > 100 | > 100 | > 100 | > 100 | > 100 | > 100 | > 100 | > 100 | > 100
CCCCCNC(=O)OC1CCn2c1nc1c2C(=O)C(C)=C(N2CC2)C1=O (stereo not given) | 4.27 | 7.05 | 3.27 | 2.69 | 2.37 | 6.2 | 5.33 | 3.31 | 2.9 | 3.87
COc1ccc(N=C(SSC(=Nc2ccc(OC)cc2)c2ccc([N+](=O)[O-])o2)c2ccc([N+](=O)[O-])o2)cc1 | 4.14 | 2.6 | 4.87 | 2.9 | 2.92 | 3.2 | > 21.9 | 25.8 | 5.87 | 3.01
CCOC(=O)C1(NC(=O)OC(C)(C)C)CCc2[nH]oc(=O)c2C1 (stereo not given) | > 100 | > 100 | > 100 | > 100 | > 100 | > 100 | > 100 | > 100 | > 100 | > 100
COc1ccc(/[N+]([O-])=C/c2ccccc2OC(=S)S)cc1 | > 100 | > 100 | 56.9 | > 100 | > 100 | 85.5 | 52 | > 100 | > 100 | > 100
COc1ccc(-c2cc(=O)c3cc(OC)c(OC)cc3[nH]2)cc1OC | > 100 | > 100 | > 100 | > 100 | > 100 | > 100 | > 100 | > 100 | > 100 | > 100
N#Cc1c(N)n(-c2nc3ccccc3s2)c(=O)c2cc([N+](=O)[O-])ccc12 | 36.7 | 51.9 | > 100 | > 48.3 | > 100 | 36.5 | 28 | 98.1 | 58.5 | > 79.2
CC(=O)OCc1cc2c(s1)C(=O)c1sccc1C2=O | 0.659 | 0.492 | 0.261 | 0.12 | 0.104 | 0.0378 | 0.285 | 3.23 | 3.24 | 0.391
COc1ccc(OC)c2c(Nc3ccc(S(=O)(=O)O)c4cc(S(=O)(=O)O)cc(S(=O)(=O)O)c34)cc(C)nc12 | > 100 | > 100 | > 100 | > 100 | > 100 | > 100 | > 100 | > 100 | > 100 | > 100
Cc1nnc(N)s/c1=N/O | > 100 | > 100 | > 100 | > 100 | > 100 | > 100 | > 100 | > 100 | > 100 | > 100
COC(=O)c1ccccc1NCc1cc(O)ccc1O | 36.3 | 32.5 | 36.9 | > 75.9 | > 100 | > 68.5 | 34.9 | > 89.2 | 44.6 | 31.9
CNc1nc(OC)c2c(n1)[n+](C)cn2C | > 100 | > 100 | > 100 | > 100 | > 100 | > 100 | > 100 | > 100 | > 100 | > 100
CCc1n[nH]c(=O)n1-c1ccncc1 | > 100 | > 100 | > 100 | > 100 | > 100 | > 100 | > 100 | > 100 | > 100 | > 100
Cc1c(Cl)cc(C(C)(C)C)c(O)c1Cc1c(C)c(Cl)cc(C(C)(C)C)c1O | 1.94 | 2.22 | 9.02 | 5.78 | 11.8 | 5.13 | 4.24 | 3.84 | 7.51 | 4.46
CC(=O)Oc1c(OC(C)C)cc(=O)n2ccsc12 | > 100 | > 100 | > 100 | > 100 | > 100 | > 100 | > 100 | > 100 | > 100 | > 100
CC(C)=C[C@@H]1C[C@H](C)[C@H]2CC[C@H](C)[C@H]3C(=O)C(O)=C(C)C(=O)[C@]123 | > 100 | > 100 | > 100 | > 100 | > 100 | > 100 | > 100 | > 100 | > 100 | > 100
